Converted amounts (≈) assume the structure as drawn. Read-outs that look alike come from different tables or passages of the source.
Legend:
[1] = tested on: C. albicans; test: Antifungal activity, cascade microdilution, C. albicans; format: cell-based, Candida albicans; conditions: Candida albicans; compounds as hydrochloride in water; MH medium; 24 h; read-out: IC50 (μg/mL) C. albicans
[2] = tested on: E. coli (1956); test: MIC determination by microplate dilution, E. coli animal strain; format: cell-based, Escherichia coli; conditions: Escherichia coli, Gram-negative, Mueller-Hinton medium, 24 h, 37° C.
Description: (§1) 1) Preparation of the Preculture
(§2) A negative control (2 mL of sterile culture medium)
(§3) A positive control (1940 μL of culture medium+40 μL of DMSO+20 μL of bacterial suspension) from a thawed biological strain (the biological strains are stored at −80° C. in glycerol).
(§4) The tubes were incubated at 37° C. for 24 hours at 100 rpm.
(§5) The microorganisms were handled under a type L2 laboratory fume cupboard and, before any handling, a UV cycle was programmed and only sterile material was used. […] The chemical compounds to be tested were prepared in a DMSO/methanol mixture (50/50) at a concentration of 5 mg/mL.
(§6) 2) Preparation of the Microplate for the Determination of the Minimum Inhibitory Concentration (MIC)
(§7) After 24 hours of incubation, a measurement of the optical density was taken using a spectrophotometer at 600 nm, collecting 100 μL of the bacterial suspension diluted in 900 μL of the sterile culture medium. This test required the use of a 96-well plate and the required volume of the microbial suspension to be seeded was calculated for an OD corresponding to a value equal to 0.01 in each well. In this plate, the first line corresponded to the negative control (195 μL of sterile culture medium in each well), the second line to the positive control (seeded culture medium supplemented with 2% of DMSO), the third line was loaded twice with bacterial suspension, 8 μL of test product were placed in each well. Thereafter, a 0.5 cascade dilution was performed from this line.
(§8) The first column served as inhibition control. A sterile filter was then placed on the microplate, allowing the passage of gases but not of contaminants. The microplate was incubated at 37° C. under a humid atmosphere for 24 hours.
(§9) NB: The medium used is Mueller-Hinton (MH) medium for bacteria. All the tests were performed in duplicate.
(§10) 4) Reading of the Results
(§11) After incubation, the filter was replaced with a transparent film, and an OD reading was then taken in an iEMS plate spectrophotometer at 620 nm. Calculation of the minimum inhibitory concentration (MIC) was performed.

[3] = tested on: S. intermedius (1051997); test: MIC determination by microplate dilution, S. intermedius animal strain; format: cell-based, Staphylococcus intermedius; conditions: Staphylococcus intermedius, Gram-positive, Mueller-Hinton medium, 24 h, 37° C.
Description: as §1, §2, §3, §4, §5, §6, §7, §8, §9, §10, §11

[4] = tested on: P. aeruginosa (1051575); test: MIC determination by microplate dilution, P. aeruginosa animal strain; format: cell-based, Pseudomonas aeruginosa; conditions: Pseudomonas aeruginosa, Gram-negative, Mueller-Hinton medium, 24 h, 37° C.
Description: as §1, §2, §3, §4, §5, §6, §7, §8, §9, §10, §11

[5] = tested on: CHO-K1 cells; test: WST1 cytotoxicity test on CHO-K1 cells; format: cell-based, Chinese hamster; conditions: Cricetulus griseus, read-out: IC50 (μg/mL) CHO
Description: Test WST1 was used to measure the cytotoxic activity of the products. This is a colorimetric test which makes it possible to measure the viability and the degree of cell proliferation. It is based on cleavage of the colorless tetrazolium salts WST-1 (4-[3-(4-iodophenyl)-2-(4-nitrophenyl)-2H-5-tetrazolio]-1,3-benzene disulfonate) with mitochondrial dehydrogenases to the yellow-colored formazan derivative, which may be quantified by spectrophotometry at 420-480 nm.
The WST1 test was performed on Chinese hamster ovary cells. The CHO-K1 cells (ATCC, USA) are kept in culture on McCoy's 5A medium supplemented with 10% fetal calf serum, 2 mM of L-glutamine and a mixture of penicillin-streptomycin (100 U/ml: 10 μg/mL). The culture is incubated at 37° C. under an atmosphere enriched in CO2 (5%), and subcultured every two days.
The cells are transferred into 96-well plates (25 000 cells/mL) in whole McCoy's 5A medium, and maintained for 24 hours at 37° C. under a humid atmosphere enriched in CO2 (5%). Increasing concentrations of test products are added to the wells in double tests and 8 growth controls containing the cells in the medium alone are included in each series of tests. After 24 hours at 37° C. (5% CO2), the culture medium is removed, the cells are rinsed in phosphate buffer (PBS) and 50 μL of PBS containing 10% of reagent WST1 are added to each well. After 20 minutes of incubation at 37° C., the results are read by spectrophotometry at 450 nm.
The results are expressed in dose-response relationships, modeled by nonlinear regression analysis using the TableCurve software. The 50% inhibitory concentration (IC50) represents the concentration of product that is capable of reducing the cell viability by 50%.

[6] = tested on: S. aureus (340); test: MIC determination by microplate dilution, S. aureus animal strain; format: cell-based, Staphylococcus aureus; conditions: Staphylococcus aureus, Gram-positive, Mueller-Hinton medium, 24 h, 37° C.
Description: as §1, §2, §3, §4, §5, §6, §7, §8, §9, §10, §11

[7] = tested on: E. coli ATCC28922; test: MIC determination by microplate dilution, E. coli human strain; format: cell-based, Escherichia coli; conditions: Escherichia coli, ATCC28922, Gram-negative, Mueller-Hinton medium, 24 h, 37° C.
Description: as §1, §2, §3, §4, §5, §6, §7, §8, §9, §10, §11

[8] = tested on: E. faecalis ATCC29212; test: MIC determination by microplate dilution, E. faecalis human strain; format: cell-based, Enterococcus faecalis; conditions: Enterococcus faecalis, ATCC29212, Gram-positive, Mueller-Hinton medium, 24 h, 37° C.
Description: as §1, §2, §3, §4, §5, §6, §7, §8, §9, §10, §11

[9] = tested on: S. aureus ATCC25923; test: MIC determination by microplate dilution, S. aureus human strain; format: cell-based, Staphylococcus aureus; conditions: Staphylococcus aureus, ATCC25923, Gram-positive, Mueller-Hinton medium, 24 h, 37° C.
Description: as §1, §2, §3, §4, §5, §6, §7, §8, §9, §10, §11

[10] = tested on: P. aeruginosa ATCC27853; test: MIC determination by microplate dilution, P. aeruginosa human strain; format: cell-based, Pseudomonas aeruginosa; conditions: Pseudomonas aeruginosa, ATCC27853, Gram-negative, Mueller-Hinton medium, 24 h, 37° C.
Description: as §1, §2, §3, §4, §5, §6, §7, §8, §9, §10, §11

[11] = tested on: P. aeruginosa (1051575); test: Potentiation of the doxycycline activity at 2 μg/mL; format: cell-based, Pseudomonas aeruginosa; conditions: in combination with doxycycline 2 μg/mL; 24 h, 37°

Compound | IC50 [1] [µg/mL] | MIC [2] [µg/mL] | MIC [3] [µg/mL] | MIC [4] [µg/mL] | IC50 ([5]; CHO-K1, CHO (Example 7)) [µg/mL] | MIC [6] [µg/mL] | MIC [7] [µg/mL] | MIC [8] [µg/mL] | MIC [9] [µg/mL] | MIC [10] [µg/mL] | MIC - P. aeruginosa (1051575): content of compound of formula (I) to restore the doxycycline activity (at 2 μg/mL) [11] [µg/mL] | IC50 ([5]; CHO-K1, 24 h) [µg/mL]
CC(C)OC(=O)CC[C@@H](C)[C@H]1CCC2C3C(CC[C@@]21C)[C@@]1(C)CC[C@H](NCCCNCCCN)CC1C[C@@H]3O (stereo partly drawn) [Compound (14), isopropyl 3β-norspermidinoursodeoxycholate] | 28 (≈ 51.1 µM) | 110 (≈ 201 µM) | 12.5 (≈ 22.8 µM) | 110 (≈ 201 µM) | 200 (≈ 365 µM) | 55 (≈ 100 µM) | – | – | – | – | – | –
CC(C)OC(=O)CC[C@@H](C)[C@H]1CCC2C3C(C[C@H](O)[C@@]21C)[C@@]1(C)CC[C@H](NCCNCCNCCNCCNCCN)CC1C[C@H]3O (stereo partly drawn) [(21), isopropyl 3β-(pentaethylenehexamine)cholate] | 66 (≈ 99.2 µM) | 66 (≈ 99.2 µM) | 16 (≈ 24.1 µM) | 66 (≈ 99.2 µM) | 105 (≈ 158 µM) | 33 (≈ 49.6 µM) | 33 (≈ 49.6 µM) | 33 (≈ 49.6 µM) | 33 (≈ 49.6 µM) | 66 (≈ 99.2 µM) | – | –
CC(C)OC(=O)CC[C@@H](C)[C@H]1CCC2C3C(CC[C@@]21C)[C@@]1(C)CC[C@H](NCCCNCCCNCCCN)CC1C[C@@H]3O (stereo partly drawn) [(51), isopropyl 3β-norsperminoursodeoxycholate] | – | 62 (≈ 102 µM) | 4 (≈ 6.61 µM) | 30 (≈ 49.6 µM) | – | 15 (≈ 24.8 µM) | 30 (≈ 49.6 µM) | 62 (≈ 102 µM) | 15 (≈ 24.8 µM) | 30 (≈ 49.6 µM) | 2 | 30 (≈ 49.6 µM)
CC(C)OC(=O)CC[C@@H](C)[C@H]1CCC2C3CCC4C[C@@H](NCCCNCCCNCCCN)CC[C@]4(C)C3C[C@H](O)[C@@]21C (stereo partly drawn) [Compound (1), isopropyl 3β-norsperminodeoxycholate] | – | 10 (≈ 16.5 µM) | 2 (≈ 3.31 µM) | 2 (≈ 3.31 µM) | – | 2 (≈ 3.31 µM) | 8 (≈ 13.2 µM) | 8 (≈ 13.2 µM) | 4 (≈ 6.61 µM) | 8 (≈ 13.2 µM) | 2 | 50 (≈ 82.6 µM)
COC(=O)CC[C@@H](C)[C@H]1CCC2C3C(CC[C@@]21C)[C@@]1(C)CC[C@H](NCCNCCNCCNCCNCCN)CC1C[C@H]3O (stereo partly drawn) [(22), methyl 3β-(pentaethylenehexamine)chenodeoxycholate] | – | 8 (≈ 12.9 µM) | 2 (≈ 3.22 µM) | 31 (≈ 49.9 µM) | – | 4 (≈ 6.44 µM) | 31 (≈ 49.9 µM) | 8 (≈ 12.9 µM) | 16 (≈ 25.8 µM) | 31 (≈ 49.9 µM) | 4 | 60 (≈ 96.6 µM)
CC(C)OC(=O)CC[C@@H](C)[C@H]1CCC2C3C(CC[C@@]21C)[C@@]1(C)CC[C@H](NCCCN(C)CCCN)CC1C[C@H]3O (stereo partly drawn) [(41), isopropyl 3β-(bis(3-aminopropyl)methylamine)chenodeoxycholate] | – | 28 (≈ 49.8 µM) | 7 (≈ 12.5 µM) | 28 (≈ 49.8 µM) | – | 14 (≈ 24.9 µM) | 56 (≈ 99.7 µM) | 28 (≈ 49.8 µM) | 14 (≈ 24.9 µM) | 28 (≈ 49.8 µM) | 4 | 4 (≈ 7.12 µM)

From US20190255073A1, “ESTERS OF 3-POLYAMINE DERIVATIVES OF BILE ACIDS FOR THE TREATMENT OF INFECTIONS” (VIRBAC, priority 2016, published 2019)
